Data reported in ChEMBL document CHEMBL1649565, “Besifloxacin, a novel fluoroquinolone, has broad-spectrum in vitro activity against aerobic and anaerobic bacteria” (Antimicrob Agents Chemother, 2009).
≈ marks a conversion by molar mass, not a printed value. Calls of active or inactive are those of the source. The rule behind the calls is not given here.

Experiments:
[1] = Drug concentration in human tears at 0.6% administered topically as single dose measured after 10 mins; format: ADME; conditions: topical or ocular, read-out: Drug uptake
Neisseria meningitidis = assay: Antibacterial activity against Neisseria meningitidis by CLSI M7-A7 method; format: functional
Streptococcus sanguinis = assay: Antibacterial activity against Streptococcus sanguinis assessed as percent susceptible isolates by CLSI M100-S18 method; format: functional
Klebsiella aerogenes = assay: Antibacterial activity against Enterobacter aerogenes by CLSI M7-A7 method; format: functional
Peptostreptococcus sp. = assay: Antibacterial activity against Peptostreptococcus sp. assessed as percent susceptible isolates by CLSI M11-A7 method; format: functional
Streptococcus mitis [2] = assay: Antibacterial activity against Streptococcus mitis by CLSI M100-S18 method; format: functional
Staphylococcus aureus [3] = assay: Antibacterial activity against ciprofloxacin-susceptible and methicillin-resistant Staphylococcus aureus assessed as percent susceptible isolates by CLSI M100-S18 method; format: functional
Cutibacterium acnes = assay: Antibacterial activity against Propionibacterium acnes by CLSI M11-A7 method; format: functional
Streptococcus mitis [4] = assay: Antibacterial activity against Streptococcus mitis assessed as percent susceptible isolates by CLSI M100-S18 method; format: functional
Streptococcus oralis = assay: Antibacterial activity against Streptococcus oralis assessed as percent susceptible isolates by CLSI M100-S18 method; format: functional
[5] = system: Streptococcus intermedius; assay: Antibacterial activity against Streptococcus intermedius assessed as percent susceptible isolates by CLSI M100-S18 method; format: functional
Enterococcus faecalis = assay: Antibacterial activity against vancomycin- resistant Enterococcus faecalis by CLSI M100-S18 method; format: functional
Streptococcus salivarius [6] = assay: Antibacterial activity against Streptococcus salivarius by CLSI M100-S18 method; format: functional
Klebsiella oxytoca = assay: Antibacterial activity against Klebsiella oxytoca by CLSI M7-A7 method; format: functional
Listeria monocytogenes = assay: Antibacterial activity against Listeria monocytogenes by CLSI M100-S18 method; format: functional
Proteus vulgaris = assay: Antibacterial activity against Proteus vulgaris assessed as percent susceptible isolates by CLSI M7-A7 method; format: functional
Proteus mirabilis = assay: Antibacterial activity against Proteus mirabilis assessed as percent susceptible isolates by CLSI M7-A7 method; format: functional
Streptococcus salivarius [7] = assay: Antibacterial activity against Streptococcus salivarius assessed as percent susceptible isolates by CLSI M100-S18 method; format: functional
[8] = system: Staphylococcus epidermidis; assay: Antibacterial activity against non-ciprofloxacin-susceptible and methicillin-susceptible Staphylococcus epidermidis by CLSI M100-S18 method; format: functional
Citrobacter freundii = assay: Antibacterial activity against Citrobacter freundii assessed as percent susceptible isolates by CLSI M7-A7 method; format: functional
[9] = Antibacterial activity against Lancefield Streptococcus sp. 'group C' by CLSI M100-S18 method; format: functional
Prevotella sp. = assay: Antibacterial activity against Prevotella sp. by CLSI M11-A7 method; format: functional
Streptococcus equinus [10] = assay: Antibacterial activity against Streptococcus bovis assessed as percent susceptible isolates by CLSI M100-S18 method; format: functional
Streptococcus equinus [11] = assay: Antibacterial activity against Streptococcus bovis by CLSI M100-S18 method; format: functional
Enterobacter cloacae = assay: Antibacterial activity against Enterobacter cloacae assessed as percent susceptible isolates by CLSI M7-A7 method; format: functional
[12] = system: Staphylococcus epidermidis
[13] = system: Streptococcus constellatus; assay: Antibacterial activity against Streptococcus constellatus by CLSI M100-S18 method; format: functional
[14] = system: Staphylococcus epidermidis; assay: Antibacterial activity against ciprofloxacin-susceptible and methicillin-resistant Staphylococcus epidermidis assessed as percent susceptible isolates by CLSI M100-S18 method; format: functional
[15] = system: Streptococcus constellatus; assay: Antibacterial activity against Streptococcus constellatus assessed as percent susceptible isolates by CLSI M100-S18 method; format: functional
Haemophilus influenzae [16] = assay: Antibacterial activity against non-ciprofloxacin-susceptible Haemophilus influenzae by CLSI M7-A7 method; format: functional
Haemophilus influenzae [17] = assay: Antibacterial activity against ciprofloxacin-susceptible Haemophilus influenzae by CLSI M7-A7 method; format: functional
Staphylococcus hominis = assay: Antibacterial activity against Staphylococcus hominis by CLSI M100-S18 method; format: functional
Clostridium perfringens = assay: Antibacterial activity against Clostridium perfringens by CLSI M11-A7 method; format: functional
Staphylococcus aureus [18] = assay: Antibacterial activity against non-ciprofloxacin-susceptible and methicillin-susceptible Staphylococcus aureus by CLSI M100-S18 method; format: functional
Acinetobacter baumannii = assay: Antibacterial activity against Acinetobacter baumannii by CLSI M7-A7 method; format: functional
[19] = system: Staphylococcus haemolyticus; assay: Antibacterial activity against Staphylococcus haemolyticus assessed as percent susceptible isolates by CLSI M100-S18 method; format: functional
Streptococcus anginosus = assay: Antibacterial activity against Streptococcus anginosus assessed as percent susceptible isolates by CLSI M100-S18 method; format: functional
Bacteroides fragilis = assay: Antibacterial activity against Bacteroides fragilis by CLSI M11-A7 method; format: functional

For `N[C@@H]1CCCCN(c2c(F)cc3c(=O)c(C(=O)O)cn(C4CC4)c3c2Cl)C1` [BESIFLOXACIN], the concentration at 10 min [1] was 610 µg/mL, the MIC50 (Neisseria meningitidis) was 0.008 µg/mL (≈ 0.0203 µM) and the MIC90 (Neisseria meningitidis) was 0.015 µg/mL (≈ 0.0381 µM). The Activity (Streptococcus sanguinis) was 0.06%, the MIC50 (Klebsiella aerogenes) was 0.25 µg/mL (≈ 0.635 µM) and the MIC90 (Klebsiella aerogenes) was 8 µg/mL (≈ 20.3 µM). The Activity (Peptostreptococcus sp.) was “inactive”, the MIC50 (Streptococcus mitis [2]) was 0.06 µg/mL (≈ 0.152 µM) and the MIC90 (Streptococcus mitis [2]) was 0.12 µg/mL (≈ 0.305 µM). The Activity (Staphylococcus aureus [3]) was “inactive”, the MIC50 (Cutibacterium acnes) was 0.25 µg/mL (≈ 0.635 µM) and the MIC90 (Cutibacterium acnes) was 0.25 µg/mL (≈ 0.635 µM). For the same compound, the Activity (Streptococcus mitis [4]) was 0.06%, the Activity (Streptococcus oralis) was 0.06% and the Activity [5] was 0.06%. For the same compound, the MIC50 (Enterococcus faecalis) was 0.12 µg/mL (≈ 0.305 µM), the MIC90 (Enterococcus faecalis) was 2 µg/mL (≈ 5.08 µM) and the MIC50 (Streptococcus salivarius [6]) was 0.06 µg/mL (≈ 0.152 µM). It also gave an MIC90 (Streptococcus salivarius [6]) of 0.12 µg/mL (≈ 0.305 µM), an MIC50 (Klebsiella oxytoca) of 0.12 µg/mL (≈ 0.305 µM) and an MIC90 (Klebsiella oxytoca) of 1 µg/mL (≈ 2.54 µM). For the same compound, the MIC50 (Listeria monocytogenes) was 0.12 µg/mL (≈ 0.305 µM), the MIC90 (Listeria monocytogenes) was 0.12 µg/mL (≈ 0.305 µM) and the Activity (Proteus vulgaris) was “inactive”. The Activity (Proteus mirabilis) was “inactive”, the Activity (Streptococcus salivarius [7]) was 0.06% and the MIC [8] was 0.25 µg/mL (≈ 0.635 µM). For the same compound, the MIC50 [8] was 0.25 µg/mL (≈ 0.635 µM), the Activity (Citrobacter freundii) was “inactive” and the MIC50 [9] was 0.03 µg/mL (≈ 0.0762 µM). The MIC90 [9] was 0.06 µg/mL (≈ 0.152 µM), the MIC50 (Prevotella sp.) was 1 µg/mL (≈ 2.54 µM) and the MIC90 (Prevotella sp.) was 4 µg/mL (≈ 10.2 µM). It also gave an Activity (Streptococcus equinus [10]) of 0.06%, an MIC50 (Streptococcus equinus [11]) of 0.06 µg/mL (≈ 0.152 µM) and an MIC90 (Streptococcus equinus [11]) of 0.12 µg/mL (≈ 0.305 µM). For the same compound, the Activity (Enterobacter cloacae) was “inactive”, the MIC90 [12] was “inactive” and the MIC50 [13] was 0.06 µg/mL (≈ 0.152 µM). The MIC90 [13] was 0.12 µg/mL (≈ 0.305 µM), the Activity [14] was “inactive” and the Activity [15] was 0.06%. For the same compound, the MIC50 (Haemophilus influenzae [16]) was 2 µg/mL (≈ 5.08 µM), the MIC90 (Haemophilus influenzae [16]) was 2 µg/mL (≈ 5.08 µM) and the MIC50 (Haemophilus influenzae [17]) was 0.015 µg/mL (≈ 0.0381 µM). The MIC90 (Haemophilus influenzae [17]) was 0.03 µg/mL (≈ 0.0762 µM), the MIC50 (Staphylococcus hominis) was 0.25 µg/mL (≈ 0.635 µM) and the MIC90 (Staphylococcus hominis) was 1 µg/mL (≈ 2.54 µM). The MIC50 (Clostridium perfringens) was 0.25 µg/mL (≈ 0.635 µM), the MIC90 (Clostridium perfringens) was 0.25 µg/mL (≈ 0.635 µM) and the MIC50 (Staphylococcus aureus [18]) was 0.5 µg/mL (≈ 1.27 µM). It also gave an MIC90 (Staphylococcus aureus [18]) of 4 µg/mL (≈ 10.2 µM), an MIC50 (Acinetobacter baumannii) of 16 µg/mL (≈ 40.6 µM) and an MIC90 (Acinetobacter baumannii) of 32 µg/mL (≈ 81.3 µM). For the same compound, the Activity [19] was “inactive”, the Activity (Streptococcus anginosus) was 0.06% and the MIC50 (Bacteroides fragilis) was 0.5 µg/mL (≈ 1.27 µM). It also gave an MIC90 (Bacteroides fragilis) of 1 µg/mL (≈ 2.54 µM).
